Laboratory results from PMC8802628, “Selective activation of PFKL suppresses the phagocytic oxidative burst” (Cell, 2021).

Assays:
IL-1β = experiment: GSDMD-dependent IL-1β release from monocytes; format: cell-based, human; conditions: nigericin or poly(dA-dT)
Protocol: Primary human monocytes were primed with 1 μg/mL ultrapure LPS and 1μg/mL Pam3CSK4 for 3 h. THP-1 cells were primed with 1 μg/mL Pam3CSK4 for 4 h. Primed cells (1 × 10^5) were treated for 1 h with DMSO vehicle, 5 μM LDC7559 (unless indicated otherwise), 10 μM MCC950, or 50 μM VX765, and then for 1 h with 10 μg/mL nigericin, or 25 μg/mL LPS (electroporated using the NEON electroporation system; ThermoFisher Scientific), or they were transfected over 3 h with 1 μg/mL poly(dA-dT) using lipofectamine 2000 (0.5 μL/well).
LDH released into the culture medium was measured 1-3 h post-activation using a CellTox Green Cytotoxicity assay (Promega). IL-1β secretion was measured using a MSD Cytokine Assay, 96-well multi-array Tissue Culture Kit (Meso Scale Discovery). For immunoblotting, monocytes (2 × 10^6) were treated with 10-50 μM LCD7559 or 50 μM VX765 and electroporated with 25 μg/mL LPS using the NEON electroporation system. Cells were lysed after 1 h using lysis buffer (50 mM Tris pH 7.4, 150 mM NaCl, 10% glycerol, 1% NP-40, 1 mM MgCl and 1X Roche cOmplete protease inhibitor cocktail) and protein concentration was determined via BCA protein assay (Peirce). Antibodies for immunoblotting were GSDMD (L60, Cell Signaling Technologies), cleaved GSDMD-Asp275 (E7H9G, Cell Signaling Technologies) and GAPDH (14C10, Cell Signaling Technologies).

GSDMD = molecular target: T1, GSDMD (Homo sapiens, UniProt P57764); experiment: TR-FRET liposome cargo release (GSDMD pore formation); format: biochemical; conditions: 10 μM
T1 sequence (P57764 1-484): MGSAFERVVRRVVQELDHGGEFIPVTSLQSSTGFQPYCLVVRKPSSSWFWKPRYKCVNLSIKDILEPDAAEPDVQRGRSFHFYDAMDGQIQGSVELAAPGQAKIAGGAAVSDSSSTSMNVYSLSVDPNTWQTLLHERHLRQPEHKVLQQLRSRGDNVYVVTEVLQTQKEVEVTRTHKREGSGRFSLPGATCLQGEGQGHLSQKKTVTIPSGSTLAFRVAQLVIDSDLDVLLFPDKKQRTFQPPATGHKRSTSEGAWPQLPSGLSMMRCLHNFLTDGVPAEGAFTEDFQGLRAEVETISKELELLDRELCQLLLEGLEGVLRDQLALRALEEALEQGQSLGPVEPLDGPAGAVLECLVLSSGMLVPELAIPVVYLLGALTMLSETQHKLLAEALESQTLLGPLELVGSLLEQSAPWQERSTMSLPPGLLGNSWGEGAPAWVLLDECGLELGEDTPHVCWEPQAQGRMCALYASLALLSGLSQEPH
Protocol: GSDMD-dependent liposome cargo release was conducted by Confluence Discovery Technologies with modifications to the procedure described previously ([Aglietti et al., 2016]). Briefly, liposomes with an encapsulated cargo of europium-chelate conjugated biotin were formed from a lipid mixture of DOPC:DOPE (1:1). 0.15 mg/mL of cargo-loaded liposomes were mixed with 0.3 μM of recombinant GSDMD and incubated with 10 μM LDC7559, 10 μM disulfiram or DMSO vehicle. 0.15 μM caspase-4 and 50 nM streptavidin-Alexa Fluor 647 were added and TR-FRET was read over 1 h using a PHERAstar FSX Microplate Reader (BMG Labtech) equipped with a TR-FRET module.

recombinant NAMPT = molecular target: T2, recombinant NAMPT (Homo sapiens, UniProt P43490); experiment: NAMPT activity assay; format: biochemical; conditions: 500 nM to 160 pM
T2 construct: purchased BPS Bioscience 71276-1
Protocol: NA-11 was diluted in ultra-pure water at concentrations between 500 nM to 160 pM, and preincubated with recombinant NAMPT for 30 min. NAMPT activity was measured using a fluorescence NAMPT Inhibitor Screening assay kit (BPS Bioscience).

E. coli = experiment: Phagocytosis assay: E. coli C.F.U. recovered from PMNs; format: cell-based, human; conditions: neutrophils pretreated 30 min
Protocol: Neutrophils (1 × 10^6) were cultured in 6-well tissue in RPMI medium containing DMSO vehicle, 0.5 μM NA-11, 0.5 μM NA-4, 100 μM Apocynin or 100 μM thionicotinamide (TN) for 30 min. E. coli grown in LB broth overnight (2 mL) were opsonized with human serum (1 mL pooled from three donors) for 1 h at room temperature. Opsonized bacteria were washed with PBS, resuspended in LB broth to an OD600of 0.1 and then added to cultured neutrophils at an MOI of 1 for 30 min. Cells were washed with medium three times and then cultured with 300 μg/mL gentamicin for 2 h to kill any extracellular bacteria. Cells were then washed again, twice with medium and once with PBS. To release phagocytosed bacteria, neutrophils were lysed in 0.05% saponin in PBS. Lysates were passed through a 25’ gauge needed several times and the number of viable phagocytosed bacteria was determined by colony counting.

T2 sequence (P43490 whole entry, species assumed): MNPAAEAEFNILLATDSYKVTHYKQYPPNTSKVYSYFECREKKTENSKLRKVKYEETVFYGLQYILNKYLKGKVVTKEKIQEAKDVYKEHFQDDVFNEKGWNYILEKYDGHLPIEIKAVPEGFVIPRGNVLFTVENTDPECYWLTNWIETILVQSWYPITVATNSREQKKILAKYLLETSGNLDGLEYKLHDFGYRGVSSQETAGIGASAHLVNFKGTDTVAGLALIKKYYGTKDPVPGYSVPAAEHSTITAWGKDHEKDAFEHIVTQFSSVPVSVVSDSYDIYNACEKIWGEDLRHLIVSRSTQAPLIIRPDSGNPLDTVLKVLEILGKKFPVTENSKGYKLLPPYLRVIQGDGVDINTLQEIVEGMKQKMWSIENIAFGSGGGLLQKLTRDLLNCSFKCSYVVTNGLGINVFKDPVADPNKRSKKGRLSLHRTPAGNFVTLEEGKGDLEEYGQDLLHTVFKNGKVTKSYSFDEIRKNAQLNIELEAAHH

Row | Compound | GSDMD-dependent release of IL-1β (IL-1β) | liposome permeabilization by GSDMD pore-forming fragment (GSDMD) | activity of recombinant NAMPT (recombinant NAMPT) | killing of phagocytosed bacteria (bacterial colonies recovered) (E. coli)
1 | COc1ccccc1-c1cc2n(n1)Cc1ccc(NC(C)=O)cc1OC2 [LDC7559, reference compound] | occurred normally | nor did it prevent the GSDMD pore-forming fragment from permeabilizing liposomes | – | –
2 | CC(=O)Nc1ccc2c(c1)OCc1cc(-c3ccccc3C#CCCCO)nn1C2 [NA-11] | – | – | did not affect the activity of recombinant NAMPT | produced more bacterial colonies than control neutrophils
